How the values were obtained:
Format in all cases: cell-based, Sprague-Dawley rat
STAT3 = assay: Western blot of STAT3 expression and phosphorylation in neural stem cells; settings: 50 μM, 4 days, FIG. 3A
Description: (§1) Neural stem cells (NSCs) were cultured and harvested as previously reported (Faseb J 2018, 32 (2), 1108-1119). Specifically, the cells were harvested by dissecting the cerebral cortex from embryos of 14-day pregnant Sprague-Dawley rats (Orient Bio, Seongnam, South Korea). The cells were incubated for 6 days at 37° C. in 5% CO2 in Dulbecco's modified Eagle's medium (DMEM/F12) (Cat no. 12500-062, Gibco, Grand Island, NY, U.S.A.) containing Ham's nutrient mixture F-12 supplemented with 1% antibiotic-antimycotic (Cat no. 15240-062, Gibco), 2% B-27 supplement (Cat no. 17504-044, Gibco), 20 ng/ml EGF (Cat no. GF144, Chemicon, Burlington, MA, U.S.A.), and 20 ng/ml FGF2 (Cat no. GF003AF, Chemicon), so as to form neurospheres. The neurospheres were then dissociated into single cells using Accutase (Cat No. SCR005, Sigma-Aldrich, St. Louis, MO, U.S.A.). The cells were then attached to culture plates for one day in medium enriched with EGF and FGF2. […]
(§2) Chemiluminescence was detected on CP-BU new film (Agfa, Mortsel, Belgium) using western blotting luminol reagent (Cat no. sc-2048, Santa Cruz Biotechnology). Band intensity was quantified using ImageJ version 2.3.0. GAPDH (Glyceraldehyde-3-phosphate dehydrogenase) was measured as a housekeeping protein.

neural stem cells (NSCs) = assay: Immunocytochemistry (ICC) of differentiating neural stem cells
Description: Neural stem cells (NSCs) were cultured and harvested as previously reported (Faseb J 2018, 32 (2), 1108-1119). Specifically, the cells were harvested by dissecting the cerebral cortex from embryos of 14-day pregnant Sprague-Dawley rats (Orient Bio, Seongnam, South Korea). The cells were incubated for 6 days at 37° C. in 5% CO2 in Dulbecco's modified Eagle's medium (DMEM/F12) (Cat no. 12500-062, Gibco, Grand Island, NY, U.S.A.) containing Ham's nutrient mixture F-12 supplemented with 1% antibiotic-antimycotic (Cat no. 15240-062, Gibco), 2% B-27 supplement (Cat no. 17504-044, Gibco), 20 ng/ml EGF (Cat no. GF144, Chemicon, Burlington, MA, U.S.A.), and 20 ng/ml FGF2 (Cat no. GF003AF, Chemicon), so as to form neurospheres. The neurospheres were then dissociated into single cells using Accutase (Cat No. SCR005, Sigma-Aldrich, St. Louis, MO, U.S.A.). The cells were then attached to culture plates for one day in medium enriched with EGF and FGF2. Next, the NSCs were treated with DMEM/F12 medium containing 1% antibiotic-antimycotic, 2% B-27 supplement, and either DMSO (Cat no. 472301, Sigma-Aldrich) or various concentrations of CPI-455 (Cat no. HY-100421, Medchemexpress, Princeton, NJ, U.S.A.) dissolved in DMSO. The medium was replaced every 2 days. Cells for western blot and immunostaining were cultured for 4 days after treatment with CPI-455. Cells for RT-qPCR and ChIP-qPCR were cultured for 3 days after treatment with CPI-455.
Immunocytochemistry was performed as previously reported (Faseb J 2018, 32 (2), 1108-1119). Specifically, the cells were fixed in 4% paraformaldehyde solution (Cat no. P231, Biosesang, Seongnam, South Korea) for 30 minutes. The cells were blocked with 5% goat serum (Cat no. S26, Millipore) diluted in 0.2% Triton X-100 (Cat no. 0694-1L, VWR International, Radnor, PA, U.S.A.).
The cells were stained for 1 hour with the following primary antibodies: TUBB3 (1:1000; Cat no. T5076, Sigma-Aldrich) and GFAP (1:500; Cat no. Z0334, Dako, Santa Clara, CA, U.S.A.). Next, the following secondary antibodies were applied for 30 minutes: Alexa488 goat anti-mouse IgG (1:1000; Cat no. A21131, Invitrogen, Waltham, MA, U.S.A.) and Cy3 goat anti-rabbit IgG (1:1000; Cat no. 111-165-144, Jackson, West Grove, PA, U.S.A.).
The nuclei were stained by treating the cells with 0.01% DAPI (4′,6-diamidino-2-phenylindole) (Cat No. D9542, Sigma-Aldrich) in PBS solution for 5 minutes. Fluorescent images were captured using a Leica DM IL inverse fluorescent microscope and LAS X software (Leica, Wetzlar, Germany).
NSCs proliferate in the presence of an epidermal growth factor (EGF) and […] growth factor-2 (FGF2), and in the absence of growth factors in a medium, NSCs differentiate into neurons and astrocytes. […]

OLIG2 = assay: Western blot of OLIG2 in differentiating neural stem cells; settings: NSCs without EGF and FGF2, 4 days, vs 0.1% DMSO, FIG. 1A
Description: as §1
as §2, with “protein. […]” for “protein.”

lif mRNA = assay: RT-qPCR of lif mRNA in neural stem cells; settings: 3 days, CPI-455-induced astrocytogenesis
Description: as §1
(§3) RNA was extracted using TRIzol® reagent (Cat no. 15596018, Thermo Fisher, Waltham, MA, U.S.A.) and dissolved in diethylpyrocarbonate-treated water (Cat no. C-9030, Bioneer, Daejeon, South Korea). Complementary DNA (cDNA) was synthesized from 1 μg of RNA per sample using a QuantiTect reverse transcriptase kit (Cat no. 205311, Qiagen, Hilden, Germany). […]

gfap mRNA = assay: RT-qPCR of gfap mRNA in differentiating neural stem cells; settings: 50 μM, 3 days without EGF and FGF2, vs 0.1% DMSO, FIG. 1B
Description: as §1, §3

bmp2 mRNA = assay: RT-qPCR of il-6, lif, cntf and bmp2 mRNA in neural stem cells; settings: 3 days, FIG. 3B
Description: as §1, §3

TUBB3 = assay: Western blot of TUBB3 in differentiating neural stem cells; settings: NSCs without EGF and FGF2, 4 days, vs 0.1% DMSO, FIG. 1A
Description: as §1
as §2, with “protein. […]” for “protein.”

GFAP = assay: Western blot of TUBB3, GFAP and OLIG2 in differentiating neural stem cells; settings: NSCs without EGF and FGF2, 4 days, vs 0.1% DMSO, FIG. 1A
Description: as §1
as §2, with “protein. […]” for “protein.”

[1] = 50 μM, 4 days without EGF and FGF2, vs 0.1% DMSO, FIGS. 2A and 2B

CC(C)c1c(-c2ccccc2)[nH]c2c(C#N)cnn2c1=O [CPI-455, 4,7-dihydro-6-(1-methylethyl)-7-oxo-5-phenyl-pyrazolo[1,5-a]pyrimidine-3-carbonitrile] was tested, and the “phosphorylated STAT3 (pSTAT3) with respect to total STAT3” value (STAT3) was “significantly increased”, the “number of GFAP-positive cells” value (neural stem cells (NSCs); [1]) was “significantly increased” and the “percentage of TUBB3-positive cells” value (neural stem cells (NSCs); [1]) was “did not show any significant difference”. For the same compound, the “number of DAPI-positive cells” value (neural stem cells (NSCs); 4 days without EGF and FGF2, vs 0.1% DMSO) was “No significant difference”, the “cytotoxicity during NSC differentiation” value (neural stem cells (NSCs); 4 days, inferred from DAPI-positive cell number) was “not inducing cytotoxicity” and the OLIG2 protein expression (OLIG2) was “no significant change”. The lif expression (lif mRNA) was “without an increase”, the “gfap mRNA expression compared to the control” value (gfap mRNA) was “significantly increased” and the “bmp2 mRNA expression” value (bmp2 mRNA; 50 μM) was “significantly increased”. For the same compound, the “bmp2 mRNA among the investigated cytokines (il-6, lif, cntf, bmp2)” value (bmp2 mRNA; comparison with il-6, lif, cntf) was “only cytokine mRNA that showed a significant increase”, the TUBB3 protein expression (TUBB3) was “no significant change” and the “GFAP protein expression compared to the control” value (GFAP) was “significantly increased”.
